Measured values as given in patent US20250382250A1, “STILBENE DERIVATIVE AS AHR AGONIST AND USE THEREOF” (NANJING GRITPHARMACO., LTD., priority 2022, published 2025).
Marks after values point to notes of the source that are not given here.

Assays:
AhR = molecular target: T1, AhR (Homo sapiens, UniProt P35869); assay: AhR agonism luciferase reporter gene assay in transfected HepG2 cells; format: cell-based; details: 16 h, ratio of treatment group to blank
T1 construct: expressed in transfected cells; host or cells: HepG2
T1 sequence (P35869 11-848): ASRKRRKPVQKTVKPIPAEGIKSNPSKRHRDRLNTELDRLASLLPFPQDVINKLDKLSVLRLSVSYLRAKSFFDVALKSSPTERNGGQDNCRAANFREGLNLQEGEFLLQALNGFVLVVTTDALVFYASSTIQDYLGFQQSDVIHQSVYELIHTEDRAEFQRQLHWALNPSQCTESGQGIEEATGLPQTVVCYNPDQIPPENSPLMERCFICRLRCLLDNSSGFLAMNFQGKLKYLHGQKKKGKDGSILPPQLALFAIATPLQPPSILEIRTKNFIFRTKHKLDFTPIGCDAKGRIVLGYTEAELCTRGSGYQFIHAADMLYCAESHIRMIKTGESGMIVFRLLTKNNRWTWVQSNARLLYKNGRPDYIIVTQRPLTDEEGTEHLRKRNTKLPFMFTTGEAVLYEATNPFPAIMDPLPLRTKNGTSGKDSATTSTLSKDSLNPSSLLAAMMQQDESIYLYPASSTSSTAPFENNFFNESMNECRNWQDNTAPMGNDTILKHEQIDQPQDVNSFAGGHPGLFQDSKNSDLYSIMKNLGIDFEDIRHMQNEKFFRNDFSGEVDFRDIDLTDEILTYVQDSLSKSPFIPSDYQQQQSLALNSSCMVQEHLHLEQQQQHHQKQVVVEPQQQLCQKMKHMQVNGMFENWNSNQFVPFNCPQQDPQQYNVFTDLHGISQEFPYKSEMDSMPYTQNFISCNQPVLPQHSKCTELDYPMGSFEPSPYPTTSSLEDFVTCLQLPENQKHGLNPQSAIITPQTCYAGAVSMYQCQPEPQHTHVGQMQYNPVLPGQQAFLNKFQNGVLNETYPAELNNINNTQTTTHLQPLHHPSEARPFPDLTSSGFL
Procedure: When the cell confluence reached 80%, the culture medium was replaced with a fresh one, and the transfection working solution was added for transfection overnight. The formula of the working solution is as follows: 1 mL of Opti-MEM+7.5 μg of pCMV-AHR+7.5 μg of pTK-3×DRE-Luc+30 μL of lipo6000. • (2) Cell plating: The transfected cells were digested, prepared into a cell suspension at a concentration of 3×10^5 cells/mL, and then plated on a 96-well plate at 100 µL/well for adherent culture overnight. • (3) Formulation
The prepared drug-containing culture media and a blank culture medium were added to the 96-well plate described above at 100 μL/well.

TNFa = assay: Regulatory effect on cytokine secretion in PHA-stimulated PBMCs: TNFa; format: cell-based; details: for TNFa: PBMCs, 15 μg/mL PHA, 24 h (PHA group 3649.21)
Procedure: (§1) • (1) Cells: […]; • (2) Cell plating and treatment: After the PBMCs were taken out from the liquid nitrogen tank and thawed, 80 μL of culture medium was added to a 96-well plate, and the cells were added at 200,000 cells/well. The culture media containing 2 μM or 0.2 μM compound 2 #, compound 6 #, or reference 1 # were added to the 96-well plate at 80 μL, at a final drug concentration of 1 μM or 0.1 μM per well. The plate was let stand for 1 h for pretreatment. After the pretreatment, the drug-containing medium was discarded, and 1 μM or 0.1 μM solution containing 15 μg/mL PHA (phytohemaggluyinin) was added at 80 μL/well. After 24 h of stimulation, the content of cytokines in the culture medium was detected. • Blank control group: The cells were treated with a normal culture medium with no drugs; • PHA group: A culture medium containing 15 μg/mL PHA but no compounds of the present disclosure was added at 80 μL/well.

IL4 = assay: Regulatory effect on cytokine secretion in PHA-stimulated PBMCs: IL4; format: cell-based; details: for IL4: PBMCs, 15 μg/mL PHA, 24 h (PHA group 9.42)
Procedure: as §1

atopic dermatitis = assay: DNFB-induced atopic dermatitis mouse model (AD Score); format: in vivo, BALB/C mice; parameters: scale not given here; details: DNFB mice
Procedure: 56 clean-grade BALB/C mice aged 6-8 weeks were subjected to 5 days of adaptive feeding and then randomized into 7 groups of 8 mice each: • A. Blank control group • B. Modeling+solvent group • C. Modeling+blank matrix group • D. Modeling+positive drug mometasone furoate group • E. Modeling+1 wt % of benvitimod group • F. […] The animal experiments were conducted in accordance with the Experimental Animal Feeding, Management and Use Guidelines of China Pharmaceutical University and in compliance with animal study ethics and regulations. As shown in the above procedures, the solvent control or DNFB was given in the morning for modeling; from day 5, the test compound ointment was administered once every afternoon at 50 mg/dose evenly on the skin surface. The specific administration method is as shown above; Specific procedures: […] Severity of atopic dermatitis was scored using the AD Score criteria The severity of the appearance of dermatitis was evaluated based on 4 indicators: A. erythema/bleeding; B. dryness; C. effusion/crusting; D. edema.

[1] = Ointment diffusion test, ex vivo rabbit skin; format: in vitro ADME; details: ointments: 2# 1.2 wt %, 6# 1.2 wt %, benvitimod 1.0 wt %, 32° C.
Procedure: Test compounds: compound 2 #ointment, 1.2 wt %; compound 6 #ointment, 1.2 wt %; benvitimod ointment, 1.0 wt %;
• (1) Preparation of ex vivo rabbit skin • (2) Preparation of receiving liquid: 100 mL of polyethylene glycol 400 solution was brought to a final volume of 250 mL with normal saline. The mixture was mixed well and stored at 4° C. Before each permeation in the receiving compartment, the system was preheated to 32° C. • (3) In vitro transdermal test: A drug transdermal diffusion apparatus was used to fix the processed rabbit skin between the supply and receiving compartments, with the stratum corneum facing the supply compartment. A constant temperature water bath circulation at 32° C. was maintained. The system was equilibrated for 30 min. Upon each replacement of the receiving liquid, the air at the lower layer was exhausted, and the liquid droplets on the skin surface were removed with paper. 0.5 g of the ointment was evenly smeared in the supply compartment. The system was stirred with a magnetic stirring at a rotation speed of 600 r/min. At 0.5, 1, 2, 3, 4, 5, 7, 9, 12, and 24 h, 1 mL of sample liquid was taken out from the receiving compartment and transferred into a liquid phase vial, and simultaneously, an equal amount of fresh receiving liquid at the same temperature was added. The liquid phase detection was conducted to calculate the drug permeation rate.

[2] = day 0, before ointment treatment (from day 5)
[3] = day 4, before ointment treatment (from day 5)
[4] = day 6, ointment 50 mg once daily from day 5 (1.2 wt % 2#/6#, 1 wt % benvitimod)
[5] = day 8, ointment 50 mg once daily from day 5 (1.2 wt % 2#/6#, 1 wt % benvitimod)
[6] = day 10, ointment 50 mg once daily from day 5 (1.2 wt % 2#/6#, 1 wt % benvitimod)

| AhR receptor agonistic fold (AhR; drug concentration 0.1 μM) [fold] | AhR receptor agonistic fold (AhR; drug concentration 1 μM) [fold] | 24-hour drug permeation rate (rank order) [1] | SMILES | TNFa (TNFa; 0.1 μM) [pg/mL] | inhibitory effect on TNFa relative to reference 1# (benvitimod) (TNFa; 1 μM) [folds] | TNFa (TNFa; 1 μM) [pg/mL] | IL4 (IL4; 0.1 μM) [pg/mL] | inhibitory effect on IL4 relative to reference 1# (benvitimod) (IL4; 1 μM) [folds] | IL4 (IL4; 1 μM) [pg/mL] | Back AD score (atopic dermatitis; [2]) | Back AD score (atopic dermatitis; [3]) | Back AD score (atopic dermatitis; [4]) | Back AD score (atopic dermatitis; [5]) | Back AD score (atopic dermatitis; [6]) |
| --- | --- | --- | --- | --- | --- | --- | --- | --- | --- | --- | --- | --- | --- | --- |
| 6.6 ± 0.1 | 25.9 ± 0.4 | benvitimod >2 #>6 # | Oc1cc(/C=C/c2ccc(F)cc2)cc(O)c1C1CCCCC1 [Compound 6, (E)-2-cyclohexyl-5-(4-fluorostyryl)-1,3-benzenediol] | 1433.29 | 2 | 810.71 | 4.62 | 2 | 2.75 | 0.00 ± 0.00 | 3.50 ± 0.35 | 5.56 ± 1.45 | 6.69 ± 1.64**^a | 5.44 ± 1.13**^aab |
| 3.2 ± 1.2 | 10.6 ± 1.0 | benvitimod >2 #>6 # | CC(C)c1c(O)cc(/C=C/c2ccccc2)cc1O [Reference 1#, Benvitimod, reference compound] | 2559.02 |  | 2426.93 | 9.30 |  | 5.63 | 0.00 ± 0.00 | 3.63 ± 0.78 | 7.44 ± 1.07 | 7.19 ± 1.14 | 6.81 ± 1.00 |
